Experimental data taken from PubChem BioAssay (NCI).
“And” between values parts separate entries of the source, which are not always exact repeats. Equal values may be shown once.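 Cultured in 96-well plates, cells were exposed to test compound for 48 hours across five concentrations. The concentration for 50% growth inhibition is given as GI50. At the TGI there is no net growth.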

Key:
Assay in all cases: NCI-60 cell line screen, 48 h
UO-31 renal = test system: UO-31 renal
RPMI-8226 leukemia = test system: RPMI-8226 leukemia
HL-60(TB) leukemia = test system: HL-60(TB) leukemia
MOLT-4 leukemia = test system: MOLT-4 leukemia
MCF7 breast = test system: MCF7 breast
T-47D breast = test system: T-47D breast
IGROV1 ovarian = test system: IGROV1 ovarian
TK-10 renal = test system: TK-10 renal
OVCAR-5 ovarian = test system: OVCAR-5 ovarian
HCT-15 colon = test system: HCT-15 colon

Row | SMILES | GI50 (UO-31 renal) | TGI (UO-31 renal) | GI50 (RPMI-8226 leukemia) | TGI (RPMI-8226 leukemia) | GI50 (HL-60(TB) leukemia) | TGI (HL-60(TB) leukemia) | GI50 (MOLT-4 leukemia) | TGI (MOLT-4 leukemia) | GI50 (MCF7 breast) | TGI (MCF7 breast) | GI50 (T-47D breast) | TGI (T-47D breast) | GI50 (IGROV1 ovarian) | TGI (IGROV1 ovarian) | GI50 (TK-10 renal) | TGI (TK-10 renal) | GI50 (OVCAR-5 ovarian) | TGI (OVCAR-5 ovarian) | GI50 (HCT-15 colon) | TGI (HCT-15 colon)
1 | CC[C@]12C=CCN3CC[C@@]4(c5ccc(OC)cc5N(C)[C@H]4[C@@](O)(C(=O)OC)[C@@H]1OC(=O)CCCC[P+](c1ccccc1)(c1ccccc1)c1ccccc1)[C@@H]32 | 12.8 µM | 26.4 µM | 0.332 µM | 2.11 µM | 0.34 µM | 1.15 µM | 1.36 µM | 5.29 µM | 0.32 µM | 5.3 µM | 0.396 µM | 12.7 µM | 0.486 µM | 1.98 µM | 2.79 µM | 9.66 µM | 1.82 µM | 12.5 µM | 19.4 µM | 43.6 µM
2 | CS(=O)(=O)OCCCCOS(C)(=O)=O | > 886 µM | 250 µM and > 1000 µM | 95.9 µM | 250 µM and > 1000 µM | 212 µM | 224 µM and 858 µM |  | 233 µM and 992 µM | 534 µM | 250 µM and > 1000 µM | 336 µM | > 464 µM | 981 µM | > 1000 µM | > 464 µM | > 464 µM | > 698 µM | > 1000 µM | > 903 µM | 236 µM and > 1000 µM
3 | CN(C)c1ccc(/C=N/NC(=O)CSc2nc3sc4c(c3c(=O)n2-c2ccccc2)CCCCC4)cc1 | > 100 µM | > 100 µM | > 100 µM | > 100 µM | > 100 µM | > 100 µM | > 100 µM | > 100 µM | 4.7 µM | > 100 µM | > 100 µM | > 100 µM | 3.08 µM | > 100 µM | 4.16 µM | > 100 µM | 6.55 µM | > 100 µM | 3.96 µM | > 100 µM
4 | O=C1C2=C(C(=O)c3c(O)ccc(O)c31)N(c1cccnc1)Cc1ccccc1O2 | 0.182 µM | 0.398 µM | 0.386 µM | 2.03 µM | 0.154 µM | 0.484 µM | 0.21 µM |  | 0.191 µM | 0.912 µM | 0.221 µM | 0.635 µM | 0.289 µM | 0.96 µM | 0.27 µM | 0.983 µM | 0.564 µM | 1.8 µM | 0.167 µM | 0.648 µM
5 | O=c1ncc(I)c[nH]1 | > 100 µM | > 100 µM | > 100 µM | > 100 µM | > 100 µM | > 100 µM | > 100 µM | > 100 µM | > 100 µM | > 100 µM | > 100 µM | > 100 µM | > 100 µM | > 100 µM | > 100 µM | > 100 µM | > 100 µM | > 100 µM | > 100 µM | > 100 µM
6 | COC1=CC(=O)c2c(O)c3c(c(O)c2C1=O)OC1(Oc2c(cc4cc(C)oc(=O)c4c2O)CC1O)C3O (stereo not drawn) |  | > 100 µM |  | > 100 µM |  | > 100 µM |  | > 100 µM |  | > 100 µM |  | > 100 µM |  | 66.5 µM |  | > 100 µM |  | > 100 µM |  | > 100 µM
7 | Cc1cc(C)nc(NS(=O)(=O)c2ccc(Nc3nc4nc(NCc5ccccc5)nc(-c5ccc(O)cc5)c4c(=O)[nH]3)cc2)n1 | 6.39 µM | > 100 µM | > 100 µM | > 100 µM | 8.41 µM | 36.2 µM | 2.38 µM | 12.8 µM | 9.58 µM | 56.8 µM | 18.4 µM | > 100 µM | 0.663 µM | 7.52 µM | 28 µM | > 100 µM | > 100 µM | > 100 µM | 32.4 µM | > 100 µM
8 | CCN(CC)c1ccc(CNc2cc(C)nc3ccc(OC)cc23)cc1 | 1.75 µM | 6.23 µM | 1.71 µM | 4.2 µM | 1.6 µM | 4.23 µM | 3.16 µM | 9.69 µM | 1.7 µM | 3.53 µM | 1.96 µM | 4.61 µM | 4.05 µM | 19.2 µM | 1.92 µM | 4.64 µM | 5.37 µM | 18.6 µM | 3.11 µM | 10.8 µM
9 | COc1ccc(-c2c(-c3cc4c(c(OC)c3OC)OCO4)noc2N)cc1 | 2.69 µM | > 100 µM | 0.503 µM | 50.9 µM | 0.214 µM | 1.46 µM | 0.621 µM | > 100 µM | 0.282 µM | > 77.5 µM | 0.568 µM | > 100 µM | 1.1 µM | > 100 µM | 0.343 µM | > 100 µM | 2.43 µM | > 100 µM | 0.391 µM | > 100 µM
